Data on two compounds can be found in patent US20240082221A1, “COMPOSITIONS AND METHODS FOR THE IDENTIFICATION OF COMPOUNDS THAT PROTECT AGAINST LIPOFUSCIN CYTOTOXICITY” (priority 2021, published 2024).

This experiment relates to LLO-induced atypical necroptosis. As to the kind of experiment: LLO-induced atypical necroptosis, protection assay. Format: cell-based.

Regarding `N=C1S/C(=C\c2cn[nH]c2-c2ccc(F)cc2)C(=O)N1c1nccs1` [Nec7, Necrostatin 7], the “protection against LLO-induced atypical necroptosis” value is given as “preventable”.
Next, `[O-][n+]1cccc(/C(Cl)=N/OC[C@H](O)CN2CCCCC2)c1` [arimoclomol]: “preventable”.
